According to PubChem BioAssay (NCI):
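Protocol summary: plate cells (96-well), add compound at 5 concentrations, incubate 48 h, interpolate endpoints linearly. TGI denotes the concentration required for complete inhibition of growth.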

Columns and labels:
Assay in all cases: NCI-60 cell line screen, 48 h
RXF 393 renal = system: RXF 393 renal
IGROV1 ovarian = system: IGROV1 ovarian
BT-549 breast = system: BT-549 breast
SF-539 CNS = system: SF-539 CNS
NCI/ADR-RES ovarian = system: NCI/ADR-RES ovarian
HL-60(TB) leukemia = system: HL-60(TB) leukemia
SN12C renal = system: SN12C renal
OVCAR-5 ovarian = system: OVCAR-5 ovarian
CCRF-CEM leukemia = system: CCRF-CEM leukemia
SNB-19 CNS = system: SNB-19 CNS
MCF7 breast = system: MCF7 breast
NCI-H460 lung = system: NCI-H460 lung
HCT-15 colon = system: HCT-15 colon
KM12 colon = system: KM12 colon
HCT-116 colon = system: HCT-116 colon
UO-31 renal = system: UO-31 renal
MDA-MB-435 = system: MDA-MB-435
OVCAR-8 ovarian = system: OVCAR-8 ovarian
NCI-H23 lung = system: NCI-H23 lung
SK-MEL-28 melanoma = system: SK-MEL-28 melanoma
A549 NSCLC = system: A549 NSCLC
MDA-N = system: MDA-N
HOP-92 NSCLC = system: HOP-92 NSCLC
SK-OV-3 ovarian = system: SK-OV-3 ovarian
COLO 205 colon = system: COLO 205 colon
SW-620 colon = system: SW-620 colon
HOP-62 NSCLC = system: HOP-62 NSCLC
OVCAR-4 ovarian = system: OVCAR-4 ovarian
SF-295 CNS = system: SF-295 CNS
RPMI-8226 leukemia = system: RPMI-8226 leukemia
K-562 leukemia = system: K-562 leukemia
MDA-MB-231 breast = system: MDA-MB-231 breast
LOX IMVI melanoma = system: LOX IMVI melanoma
HCC-2998 colon = system: HCC-2998 colon
SF-268 CNS = system: SF-268 CNS
UACC-257 melanoma = system: UACC-257 melanoma
SNB-75 CNS = system: SNB-75 CNS
DU-145 prostate = system: DU-145 prostate
NCI-H522 lung = system: NCI-H522 lung
PC-3 prostate = system: PC-3 prostate
MOLT-4 leukemia = system: MOLT-4 leukemia
M14 melanoma = system: M14 melanoma
786-0 renal = system: 786-0 renal
OVCAR-3 ovarian = system: OVCAR-3 ovarian
UACC-62 melanoma = system: UACC-62 melanoma
SK-MEL-5 melanoma = system: SK-MEL-5 melanoma
SR leukemia = system: SR leukemia
T-47D breast = system: T-47D breast
HT29 colon = system: HT29 colon
U251 CNS = system: U251 CNS
SK-MEL-2 melanoma = system: SK-MEL-2 melanoma
A498 renal = system: A498 renal
MALME-3M melanoma = system: MALME-3M melanoma
CAKI-1 renal = system: CAKI-1 renal
EKVX NSCLC = system: EKVX NSCLC
ACHN renal = system: ACHN renal
TK-10 renal = system: TK-10 renal
HS 578T breast = system: HS 578T breast
NCI-H226 lung = system: NCI-H226 lung

Measured: TGI

COc1ccc(-c2nc(-c3cnccn3)n(Cc3ccccc3)n2)cc1
not listed: SK-MEL-2 melanoma | A498 renal | MALME-3M melanoma | CAKI-1 renal | EKVX NSCLC | ACHN renal | TK-10 renal | HS 578T breast | NCI-H226 lung
> 100 µM: all other assays above

Cc1cn([C@@H]2C[C@H](CO)[C@@H]2O)c(=O)[nH]c1=O
not listed: SNB-19 CNS | SK-OV-3 ovarian | M14 melanoma | UACC-62 melanoma | T-47D breast
> 100 µM: all other assays above
